Patent US9062037B2, “Tazarotene derivatives” (Stiefel Laboratories, Inc., priority 2009, dated 2015)
Like-named read-outs stand apart in the source and are kept apart here.

What was measured:
[1] = Stability in human plasma at room temperature; assay type: in vitro ADME
Experimental: (§1) Tazarotene, tazarotene sulfoxide and tazarotene benzoate were incubated at room temperature with human and rat plasma. The incubation was carried out in duplicate and samples were taken at specific time points for stability analyses (i) rat samples (0 hour, 2 hours and 4 hours) and (ii) human samples (0 hour, 2 hours, 4 hours and 8 hours). Samples were analyzed by LC-MS/MS.

in vitro = conditions: human, liver microsomes, pH 7.4, Half-life, HLM
Experimental: (§2) Hepatic microsomal reactions were carried out in microcentrifuge tubes in the following manner. Human liver microsomes (0.5 or 1.0 mg/ml protein), Test Article (1 or 10 μM), paraoxon (0, 10 or 100 μM), NADPH regenerating system (10 mM glucose-6-phosphate, 1 unit/ml glucose-6-phosphate dehydrogenase, 1 mM NADP^+), magnesium chloride (5 mM) in 0.1 M potassium phosphate buffer, pH 7.4 were incubated at 37° C. in a shaking water bath. Reactions were initiated with the addition of substrate with the exception of the zero-time incubations. The total reaction volume was 0.2 ml. The reactions were incubated for 15, 30, 45 or 60 minutes, terminated with 0.2 ml ice-cold acetonitrile and then placed on ice. For zero-time incubations, ice cold acetonitrile was added to the mixture containing microsomes, along with NADPH regenerating system, magnesium chloride in phosphate buffer and the Test Article. Each time point was carried out in triplicate.
(§3) Disappearance of Test Article and formation of metabolites following in vitro metabolism were determined by LC-MS/MS using multiple reaction monitoring. LightSight® software (Applied Biosystems, Foster City, Calif.) was used to generate the mass spectrometry methods and carry out the data mining.
(§4) Control incubations were carried out with the identical incubation procedures as described above with the following exceptions. In negative control reactions, microsomes were not included. […] Duplicate reactions with an initial concentration of 10 μM were incubated for 0 or 30 minutes. Microsomal metabolic stability of 7-ethoxycoumarin was determined by LC-MS/MS.

[2] = test system: Reconstructed human epidermis (RHE) tissues; test: RT-qPCR gene expression of K10, K19, filaggrin, K4 and K13 in reconstructed human epidermis (RHE) cultures; assay type: cell-based; conditions: 72 h, 2.83 mM in OD/10% DMSO, 6 μl
Experimental: Reconstructed human epidermis (RHE) tissues were cultured in-house as previously described by Poumay et al. Briefly, polycarbonate culture inserts (12 mm diameter and 0.4 μm pore size, Millipore) were filled with 150 μL of a suspension containing approximately 5×10^5 primary adult human keratinocytes. The inserts received another 500 μL of keratinocyte culture media and were placed in a 6-well plate (1 insert/well) containing 2.5 mL of RHE Growth Media (Epilife media +1.5 mM CaCl2). RHE cultures were incubated at 37° C. in a humidified atmosphere containing 5% CO2, for 24 hours. Subsequently (on Day 0), RHE cultures were exposed to the air-liquid interface by removing the RHE Growth Media from the top of the cultures, and replacing with 1.5 mL/well of RHE Growth Media containing 50 μg/mL vitamin C. Media was changed every other day until the cultures were dosed with Test Articles. A stock solution of 0.1% tazarotene (2.83 mM at 99.5% purity) in OD/10% DMSO was prepared. For tazarotene benzoate, hydroxytazarotenic acid, keto tazarotenic acid, keto tazarotene, and tazarotene nicotinate, a 10 mg/mL stock solution (in DMSO) was already prepared. From this stock solution, a 2.83 mM working solution (in octyldodecanol) was prepared. All other tested compounds were resuspended in DMSO and OD to obtain a final concentration of 2.83 mM in OD/10% DMSO. On Day 12, the cultures were placed in 60 mm petri dishes containing 3 mL of RHE Growth Media (+VitC). Test articles (6 μl) were applied to triplicate cultures and cultures were incubated at 37° C. for 72 hours. Untreated and OD alone served as negative controls. At the end of the incubation period, the growth media was collected and stored at −20° C. The tissues were cut in half: one half was placed in 10% NBF for histology, and the other half was placed in RNAlater™ solution for RT-qPCR. RNA was isolated and concentrations were determined using a NanoDrop spectrophotometer. In addition to using the same amount of RNA for each sample, data was normalized to internal GAPDH mRNA levels and is expressed as relative quantification (RQ) to untreated controls. RNA extracts from each replicate were amplified using RT-qPCR. The relative gene expression of five biomarkers was determined: Keratin 10, Keratin 19, Filaggrin, Keratin 4, and Keratin 13.

[3] = for k constant: HLM
Experimental: as §2, §3, §4

SkinEthic RHE cultures = test: IL-1α and IL-8 activity assay in SkinEthic RHE cultures; assay type: cell-based, human; conditions: 6 μl test article, 72 hours
Experimental: SkinEthic RHE cultures were transferred into 6-well plates containing 1.0 mL/well growth media. The cultures were equilibrated at 37° C. and the media was changed daily. The cultures were subsequently placed in 60 mm petri dishes containing 3.5 mL growth media. 6 μl aliquots of the Test Articles shown in Table 3 were applied to duplicate cultures. The cultures were incubated at 37° C. for 72 hours. At the end of the incubation period, the growth media was collected and stored at −20° C. The tissues were cut in half and one half was placed in 10% NBF for histology, while the other half was placed in RNAlater™ solution (Ambion). The following analyses were performed: a) IL-1α and IL-8 activity assay; b) Hand E staining; c) Immunohistochemistry for K10, K19 and filaggrin; and d) qRT-PCR to quantitate K10, K19 and filaggrin expression.

[4] = Stability in rat plasma at room temperature; assay type: in vitro ADME
Experimental: as §1

[5] = In vitro application of DUAC gel/TAZORAC cream mixture to split-thickness human skin; tazarotene and degradants quantified by LC/MS/MS; assay type: in vitro ADME; conditions: for detected in the receiving medium (passing through the skin): DUAC/TAZORAC mixture applied to split-thickness human skin
Experimental: An in vitro study was conducted to assess the formation of tazarotene degradants following the application of a mixture of DUAC gel and TAZORAC cream to human skin.
Equal portions of DUAC gel and TAZORAC cream were dispensed into a glass vial and mixed for approximately three minutes with a metal spatula to ensure a homogenous mixture. Samples of European DUAC gel and US DUAC gel were used in separate experiments. […] The test mixtures were then applied to the surface of split-thickness skin (˜0.25 mm) at a dose of 15.6 mg/cm^2 and spread evenly using a positive displacement pipette.
After 2 and 6 hours, the skin samples were washed, tape stripped twice, and then the epidermis was peeled from the dermis using a heat block. The skin samples were then extracted with acetonitrile overnight at 4° C. The distribution of tazarotene and its degradants within the epidermis, dermis and surface wash were quantified by LC/MS/MS with a 50 pg/mL LOQ. The experiments were performed under yellow light conditions. For the purposes of comparison, mixtures of DUAC gel and TAZORAC cream were also prepared and retained for stability testing at 0, 2 and 6 hour time points.

[6] = read-out: K4 Fold Change vs Untreated/OD controls (upregulation)
[7] = read-out: K13 Fold Change vs Untreated/OD controls (upregulation)
[8] = read-out: K19 Fold Change vs Untreated/OD controls (upregulation)
[9] = 1 μM initial concentration, Complete (with NADPH), 0 min
[10] = 1 μM initial concentration, Complete (with NADPH), 15 min
[11] = 1 μM initial concentration, Complete (with NADPH), 30 min
[12] = 1 μM initial concentration, Complete (with NADPH), 45 min
[13] = 1 μM initial concentration, Complete (with NADPH), 60 min
[14] = 1 μM initial concentration, Without NADPH, 0 min
[15] = 1 μM initial concentration, Without NADPH, 15 min
[16] = 1 μM initial concentration, Without NADPH, 30 min
[17] = 1 μM initial concentration, Without NADPH, 45 min
[18] = 1 μM initial concentration, Without NADPH, 60 min
[19] = 10 μM initial concentration, Complete (with NADPH), 0 min
[20] = 10 μM initial concentration, Complete (with NADPH), 15 min
[21] = 10 μM initial concentration, Complete (with NADPH), 30 min
[22] = 10 μM initial concentration, Complete (with NADPH), 45 min
[23] = 10 μM initial concentration, Complete (with NADPH), 60 min
[24] = 10 μM initial concentration, Without NADPH, 0 min
[25] = 10 μM initial concentration, Without NADPH, 15 min
[26] = 10 μM initial concentration, Without NADPH, 30 min
[27] = 10 μM initial concentration, Without NADPH, 45 min
[28] = 10 μM initial concentration, Without NADPH, 60 min

SMILES: CCOC(=O)c1ccc(C#Cc2ccc3c(c2)C(C)(C)CCS3)nc1 [Tazarotene, ethyl 6-[2-(4,4-dimethylthiochroman-6-yl)-ethynyl nicotinate]
- concentration in human plasma ([1]; 0 hour): 17.1 ng/mL
- concentration in human plasma ([1]; 2 hours): 17.1 ng/mL
- concentration in human plasma ([1]; 4 hours): 16.6 ng/mL
- concentration in human plasma ([1]; 8 hours): 17.5 ng/mL
- half-life at 1 µM (in vitro; Complete): 7.88 min
- half-life at 1 µM (in vitro; Without NADPH): 7.71 min
- half-life at 10 µM (in vitro; Complete): 8.38 min
- half-life at 10 µM (in vitro; Without NADPH): 7.58 min
- fold induction at 2830 µM [2, 6]: 103 to 180
- fold induction at 2830 µM [2, 7]: 12
- fold induction at 2830 µM [2, 8]: 33 to 43
- Test Article remaining, percent of initial concentration [3, 9]: 100%
- Test Article remaining, percent of initial concentration [3, 10]: 21.1%
- Test Article remaining, percent of initial concentration [3, 11]: 4.91%
- Test Article remaining, percent of initial concentration [3, 12]: 1.80%
- Test Article remaining, percent of initial concentration [3, 13]: 0.70%
- Test Article remaining, percent of initial concentration [3, 14]: 100%
- Test Article remaining, percent of initial concentration [3, 15]: 22.0%
- Test Article remaining, percent of initial concentration [3, 16]: 4.86%
- Test Article remaining, percent of initial concentration [3, 17]: 1.43%
- Test Article remaining, percent of initial concentration [3, 18]: 0.65%
- Test Article remaining, percent of initial concentration [3, 19]: 100%
- Test Article remaining, percent of initial concentration [3, 20]: 24.1%
- Test Article remaining, percent of initial concentration [3, 21]: 6.55%
- Test Article remaining, percent of initial concentration [3, 22]: 2.18%
- Test Article remaining, percent of initial concentration [3, 23]: 0.89%
- Test Article remaining, percent of initial concentration [3, 24]: 100%
- Test Article remaining, percent of initial concentration [3, 25]: 21.9%
- Test Article remaining, percent of initial concentration [3, 26]: 4.64%
- Test Article remaining, percent of initial concentration [3, 27]: 1.48%
- Test Article remaining, percent of initial concentration [3, 28]: 0.55%
- k constant ([3]; 1 μM, Complete): −0.0880
- k constant ([3]; 1 μM, Without NADPH): −0.0899
- k constant ([3]; 10 μM, Complete): −0.0827
- k constant ([3]; 10 μM, Without NADPH): −0.0914
- IL-1α activity compared to untreated and vehicle controls (SkinEthic RHE cultures): only slightly increased
- concentration in rat plasma ([4]; 0 hour): 16.4 ng/mL
- concentration in rat plasma ([4]; 2 hours): <LOD
- concentration in rat plasma ([4]; 4 hours): <LOD
- detected in the receiving medium (passing through the skin) [5]: could not be detected

SMILES: CCOC(=O)c1ccc(C#Cc2ccc3c(c2)C(C)(C)CC(OC(=O)c2ccccc2)S3)nc1 (stereo not shown) [Compound 4, 6-(2-(2-benzoyloxy-4,4-dimethylthiochroman-6-yl)ethynyl)nicotinic acid, ethyl ester]
- concentration in human plasma ([1]; 0 hour): 52.0 ng/mL
- concentration in human plasma ([1]; 2 hours): 52.0 ng/mL
- concentration in human plasma ([1]; 4 hours): 50.0 ng/mL
- concentration in human plasma ([1]; 8 hours): 45.8 ng/mL
- half-life at 1 µM (in vitro; Complete): 7.76 min
- half-life at 1 µM (in vitro; Without NADPH): 7.19 min
- half-life at 10 µM (in vitro; Complete): 71.4 min
- half-life at 10 µM (in vitro; Without NADPH): 47.5 min
- fold induction at 2830 µM [2, 6]: 29
- fold induction at 2830 µM [2, 7]: 7
- fold induction at 2830 µM [2, 8]: 8
- Test Article remaining, percent of initial concentration [3, 9]: 100%
- Test Article remaining, percent of initial concentration [3, 10]: 20.3%
- Test Article remaining, percent of initial concentration [3, 11]: 4.45%
- Test Article remaining, percent of initial concentration [3, 12]: 1.47%
- Test Article remaining, percent of initial concentration [3, 13]: 0.73%
- Test Article remaining, percent of initial concentration [3, 14]: 100%
- Test Article remaining, percent of initial concentration [3, 15]: 17.3%
- Test Article remaining, percent of initial concentration [3, 16]: 2.97%
- Test Article remaining, percent of initial concentration [3, 17]: 1.07%
- Test Article remaining, percent of initial concentration [3, 18]: 0.53%
- Test Article remaining, percent of initial concentration [3, 19]: 100%
- Test Article remaining, percent of initial concentration [3, 20]: 99.3%
- Test Article remaining, percent of initial concentration [3, 21]: 73.4%
- Test Article remaining, percent of initial concentration [3, 22]: 63.2%
- Test Article remaining, percent of initial concentration [3, 23]: 55.2%
- Test Article remaining, percent of initial concentration [3, 24]: 100%
- Test Article remaining, percent of initial concentration [3, 25]: 87.0%
- Test Article remaining, percent of initial concentration [3, 26]: 64.0%
- Test Article remaining, percent of initial concentration [3, 27]: 51.0%
- Test Article remaining, percent of initial concentration [3, 28]: 41.0%
- k constant ([3]; 1 μM, Complete): −0.0893
- k constant ([3]; 1 μM, Without NADPH): −0.0964
- k constant ([3]; 10 μM, Complete): −0.0097
- k constant ([3]; 10 μM, Without NADPH): −0.0146
- IL-1α activity compared to untreated and vehicle controls (SkinEthic RHE cultures): only slightly increased
- concentration in rat plasma ([4]; 0 hour): 59.8 ng/mL
- concentration in rat plasma ([4]; 2 hours): 15.0 ng/mL
- concentration in rat plasma ([4]; 4 hours): 2.29 ng/mL
- detectable in epidermis and dermis samples ([5]; 2 and 6 hours post-application, all samples including the placebo): detectable in all samples
- detected in the receiving medium (passing through the skin) [5]: could not be detected
- quantity in stability samples at the 6 hour time point relative to the 2 hour time point ([5]; mixture of DUAC gel and TAZORAC cream retained for stability testing): significant increase
